From ChEMBL document CHEMBL1142398, “Chemical stability of the peroxide bond enables diversified synthesis of potent tetraoxane antimalarials” (J Med Chem, 2008)

Assays:
Plasmodium falciparum [1] = experiment: microbe, parasite or virus in culture; conditions: D6
Description: Antimalarial activity against Plasmodium falciparum D6

Plasmodium berghei [2] = experiment: Antimalarial activity against Plasmodium berghei KBG173 infected CD1 mice (Mus musculus) at 320 mg/kg/day peroral dose as survival time after 3-5 days; assay type: functional; conditions: route oral
Plasmodium falciparum [3] = experiment: microbe, parasite or virus in culture; conditions: W2
Description: Antimalarial activity against Plasmodium falciparum W2

[4] = Metabolic stability assessed as half life in mouse liver microsomes; assay type: ADME, Microsome
[5] = Metabolic stability assessed as half life in human liver microsomes; assay type: ADME, Microsome
Plasmodium berghei [6] = experiment: Antimalarial activity against Plasmodium berghei KBG173 infected CD1 mice (Mus musculus) at 20 mg/kg/day peroral dose as survival time after 3-5 days; assay type: functional; conditions: route oral
Plasmodium berghei [7] = experiment: Antimalarial activity against Plasmodium berghei KBG173 infected CD1 mice (Mus musculus) at 80 mg/kg/day peroral dose as survival time after 3-5 days; assay type: functional; conditions: route oral
Plasmodium falciparum [8] = experiment: microbe, parasite or virus in culture; conditions: TM91C235
Description: Antimalarial activity against multidrug-resistant Plasmodium falciparum TM91C235

NCI-H460 = experiment: Antiproliferative activity against human NCI-H460 cells after 48 hrs; assay type: functional; conditions: NCI-H460, 48 h
[9] = Antiproliferative activity against human HL60(TB) cells after 48 hrs; assay type: functional, HL-60(TB); conditions: HL-60, 48 h
SF-295 = experiment: Antiproliferative activity against human SF295 cells after 48 hrs; assay type: functional; conditions: SF-295, 48 h
MOLT-4 = experiment: Antiproliferative activity against human MOLT4 cells after 48 hrs; assay type: functional; conditions: MOLT-4, 48 h
PC-3 = experiment: Antiproliferative activity against human PC3 cells after 48 hrs; assay type: functional; conditions: PC-3, 48 h
U-251 = experiment: Antiproliferative activity against human U251 cells after 48 hrs; assay type: functional; conditions: U-251, 48 h
LOX IMVI = experiment: Antiproliferative activity against human LOXIMVI cells after 48 hrs; assay type: functional
NCI/ADR-RES = experiment: Antiproliferative activity against human NCI/ADR-RES cells after 48 hrs; assay type: functional
CCRF-CEM = experiment: Antiproliferative activity against human CCRF-CEM cells after 48 hrs; assay type: functional
DU-145 = experiment: Antiproliferative activity against human DU145 cells after 48 hrs; assay type: functional; conditions: DU-145, 48 h
T47D = experiment: Antiproliferative activity against human T47D cells after 48 hrs; assay type: functional
IGROV-1 = experiment: Antiproliferative activity against human IGROV1 cells after 48 hrs; assay type: functional; conditions: IGROV-1, 48 h
SR = experiment: Antiproliferative activity against human SR cells after 48 hrs; assay type: functional
SF-539 = experiment: Antiproliferative activity against human SF539 cells after 48 hrs; assay type: functional; conditions: SF-539, 48 h
SK-MEL-2 = experiment: Antiproliferative activity against human SKMEL2 cells after 48 hrs; assay type: functional; conditions: SK-MEL-2, 48 h
HOP-92 = experiment: Antiproliferative activity against human HOP92 cells after 48 hrs; assay type: functional; conditions: HOP-92, 48 h
EKVX = experiment: Antiproliferative activity against human EKVX cells after 48 hrs; assay type: functional
UO-31 = experiment: Antiproliferative activity against human UO31 cells after 48 hrs; assay type: functional; conditions: UO-31, 48 h
786-0 = experiment: Antiproliferative activity against human 786-0 cells after 48 hrs; assay type: functional; conditions: 786-0, 48 h
[10] = read-out: LC50 (the source's name)

## CN(C)CCNC(=O)C1CCC2(CC1)OOC1(CCCCC1)OO2
Plasmodium falciparum [1]
  IC50: 11.2 nM
  IC90: 15.1 nM
Plasmodium berghei [2]
  Survival: 17.4 days
Plasmodium falciparum [3]
  IC50: 9.72 nM
  IC90: 17.9 nM
[4]
  half-life: > 1 h
[5]
  half-life: > 1 h
Plasmodium berghei [6]
  Survival: 7.2 days
Plasmodium berghei [7]
  Survival: 7.6 days
Plasmodium falciparum [8]
  IC50: 7.24 nM
  IC90: 12.8 nM

## CC(=O)O[C@H]1C[C@H]2[C@@H]([C@H](OC(C)=O)C[C@@H]3CC4(CC[C@@]32C)OOC2(CCCCC2)OO4)[C@@H]2CC[C@H]([C@H](C)CCCN=[N+]=[N-])[C@@]12C
Plasmodium falciparum [1]
  IC50: 8.6 nM
  IC90: 13.3 nM
Plasmodium falciparum [3]
  IC50: 6.3 nM
  IC90: 21.6 nM
Plasmodium falciparum [8]
  IC50: 13.9 nM
  IC90: 20.6 nM

## COC(=O)C1CCC2(CC1)OOC1(CCCCC1)OO2
Plasmodium falciparum [1]
  IC50: 29.2 nM
  IC90: 83.9 nM
Plasmodium falciparum [3]
  IC50: 40.4 nM
  IC90: 62.5 nM
Plasmodium falciparum [8]
  IC50: 27 nM
  IC90: 110 nM

## O=C(O)C1CCC2(CC1)OOC1(CCCCC1)OO2
Plasmodium falciparum [1]
  IC50: 429 nM
  IC90: 467 nM
Plasmodium falciparum [3]
  IC50: 413 nM
  IC90: 520 nM
Plasmodium falciparum [8]
  IC50: 411 nM
  IC90: 523 nM

## COC(=O)CC[C@@H](C)[C@H]1CC[C@H]2[C@@H]3[C@H](OC(C)=O)C[C@@H]4CC5(CC[C@]4(C)[C@H]3C[C@H](OC(C)=O)[C@]12C)OOC1(CCCCC1)OO5
Plasmodium falciparum [1]
  IC50: 21.5 nM
Plasmodium falciparum [3]
  IC50: 17 nM

## C[C@H](CCCO)[C@H]1CC[C@H]2[C@@H]3[C@H](O)C[C@@H]4CC5(CC[C@]4(C)[C@H]3C[C@H](O)[C@]12C)OOC1(CCCCC1)OO5
NCI-H460
  GI50: 240 nM
  TGI: 620 nM
NCI-H460; [10]
  CC50: 2680 nM
Plasmodium falciparum [1]
  IC50: 130 nM
  IC90: 623 nM
[9]
  GI50: 150 nM
  TGI: 310 nM
[9]; [10]
  CC50: 620 nM
Plasmodium falciparum [3]
  IC50: 109 nM
  IC90: 298 nM
SF-295
  GI50: 170 nM
  TGI: 330 nM
SF-295; [10]
  CC50: 660 nM
MOLT-4
  GI50: 180 nM
  TGI: 410 nM
MOLT-4; [10]
  CC50: 960 nM
PC-3
  GI50: 290 nM
  TGI: 990 nM
PC-3; [10]
  CC50: 3410 nM
U-251
  GI50: 210 nM
  TGI: 460 nM
U-251; [10]
  CC50: 980 nM
LOX IMVI
  GI50: 20 nM
  TGI: 30 nM
LOX IMVI; [10]
  CC50: 60 nM
NCI/ADR-RES
  GI50: 250 nM
  TGI: 590 nM
NCI/ADR-RES; [10]
  CC50: 4270 nM
CCRF-CEM
  GI50: 100 nM
  TGI: 240 nM
CCRF-CEM; [10]
  CC50: 560 nM
DU-145
  GI50: 110 nM
  TGI: 230 nM
DU-145; [10]
  CC50: 480 nM
T47D
  GI50: 330 nM
  TGI: 930 nM
T47D; [10]
  CC50: 5300 nM
IGROV-1
  GI50: < 10 nM
  TGI: 10 nM
IGROV-1; [10]
  CC50: 60 nM
SR
  GI50: 160 nM
  TGI: 340 nM
SR; [10]
  CC50: 720 nM
SF-539
  GI50: 170 nM
  TGI: 320 nM
SF-539; [10]
  CC50: 590 nM
SK-MEL-2
  GI50: 200 nM
  TGI: 390 nM
SK-MEL-2; [10]
  CC50: 730 nM
HOP-92
  GI50: 140 nM
  TGI: 320 nM
HOP-92; [10]
  CC50: 730 nM
Plasmodium falciparum [8]
  IC50: 166 nM
  IC90: 340 nM
EKVX
  GI50: 140 nM
  TGI: 310 nM
EKVX; [10]
  CC50: 650 nM
UO-31
  GI50: 40 nM
  TGI: 170 nM
UO-31; [10]
  CC50: 610 nM
786-0
  GI50: 230 nM
  TGI: 540 nM
786-0; [10]
  CC50: 2010 nM

## CC(=O)OCCC[C@@H](C)[C@H]1CC[C@H]2[C@@H]3[C@H](OC(C)=O)C[C@@H]4CC5(CC[C@]4(C)[C@H]3C[C@H](OC(C)=O)[C@]12C)OOC1(CCCCC1)OO5
Plasmodium falciparum [1]
  IC50: 15.9 nM
  IC90: 28.4 nM
Plasmodium falciparum [3]
  IC50: 11.6 nM
  IC90: 26.3 nM
Plasmodium falciparum [8]
  IC50: 19.2 nM
  IC90: 29.3 nM

## NC(=O)C1CCC2(CC1)OOC1(CCCCC1)OO2
Plasmodium falciparum [1]
  IC50: 24 nM
  IC90: 42.8 nM
Plasmodium falciparum [3]
  IC50: 20.2 nM
  IC90: 40.4 nM
Plasmodium falciparum [8]
  IC50: 27.2 nM
  IC90: 55.6 nM

## C[C@@H]1CC[C@H]2[C@@H](C)C(=O)O[C@@H]3O[C@@]4(C)CC[C@@H]1[C@]32OO4 [ARTEMISININ]
Plasmodium falciparum [1]
  IC50: 9 nM
  IC90: 12.8 nM
Plasmodium falciparum [3]
  IC50: 6.7 nM
  IC90: 11.5 nM
Plasmodium falciparum [8]
  IC50: 13 nM
  IC90: 17.4 nM

## CCN(CC)CCCC(C)Nc1ccnc2cc(Cl)ccc12 (stereo not given) [CHLOROQUINE]
Plasmodium falciparum [1]
  IC90: 17.6 nM
Plasmodium falciparum [3]
  IC90: 1020 nM
Plasmodium falciparum [8]
  IC90: 345 nM

## O[C@@H](c1cc(C(F)(F)F)nc2c(C(F)(F)F)cccc12)[C@H]1CCCCN1 [MEFLOQUINE]
Plasmodium falciparum [1]
  IC50: 7.34 nM
  IC90: 19.5 nM
Plasmodium falciparum [3]
  IC90: 9.45 nM
Plasmodium falciparum [8]
  IC50: 22.4 nM
  IC90: 50.1 nM
